Data set [1] concerns MC-38. Briefly: Antitumor activity against mouse MC38 cells implanted in C57BL/6J mouse assessed as reduction in tumor growth on right flank at 5 ug,IT administrated in right flank on day 0, 3 and 7 measured after 15 days. The following applies: dose 5.0 µg, time 15.0 day. Format: functional, cell-based.
The test system of data set [2] is MC-38. Briefly: Antitumor activity against mouse MC38 cells implanted in C57BL/6J mouse assessed as reduction in tumor growth on right flank at 20 ug,IT administrated in right flank on day 0, 3 and 7 measured after 15 days. Format: functional, cell-based. To be noted: dose 20.0 µg, time 15.0 day.
Data set [3] has as its system Mus musculus. Briefly: Antitumor immunity in mouse MC38 cells implanted in C57BL/6J mouse assessed as increase in IFN-beta level in injected tumor at 5 to 20 ug,IT administrated in right flank on day 0 measured after 4 hrs by ELISA. Format: functional, organism-based. The following applies: MC-38, dose 5-20 µg.
Data set [4] deals with Mus musculus. Put plainly: Antitumor immunity in mouse MC38 cells implanted in C57BL/6J mouse assessed as increase in IL-6 level in injected tumor at 5 to 20 ug,IT administrated in right flank on day 0 measured after 4 hrs by mesoscale assay. The format is functional, organism-based. To be noted: MC-38, dose 5-20 µg.
The test system of data set [5] is Mus musculus. Briefly: Antitumor immunity in mouse MC38 cells implanted in C57BL/6J mouse assessed as increase in TNF-alpha level in injected tumor at 5 to 20 ug,IT administrated in right flank on day 0 measured after 4 hrs by mesoscale assay. The format is functional, organism-based. To be noted: MC-38, dose 5-20 µg.
Data set [6] deals with MC-38. Put plainly: Antitumor activity against mouse MC38 cells implanted in C57BL/6J mouse assessed as reduction in tumor growth at 4 ug,IT administered for day 0,3,7 followed by anti-mouse PD-1 antibody Mdx400 incubated for 28 days measured twice a week. The following applies: dose 4.0 µg, time 28.0 day. Format: functional, cell-based.
For another data set, the system named is B16-F10. Briefly: Antitumor activity against mouse B16-F10 cells implanted in C57BL/6J mouse assessed as reduction in tumor growth at 4 ug,IT administered for day 0,3,7 followed by anti-mouse PD-1 antibody Mdx400 incubated for 28 days measured twice a week. The format is functional. To be noted: dose 4.0 µg, time 28.0 day.
For data set [7], the target named is Stimulator of interferon genes protein (Mus musculus, UniProt Q3TBT3). To be noted: bmdc.
Data set [8] can be described thus: Drug uptake in plasma of C57BL/6J mouse implanted with mouse MC38 cells assessed as drug concentration at 20 ug,IT administrated on right flank on day 0 measured upto 1 hr by LC-MS analysis. The format is ADME, cell-free, MC-38. To be noted: in vivo, other, dose 20 µg.
Data set [9] can be described thus: Drug uptake in plasma of C57BL/6J mouse implanted with mouse MC38 cells assessed as drug concentration at 20 ug,IT administrated on left flank on day 0 measured upto 1 hr by LC-MS analysis. The following applies: in vivo, other, dose 20 µg. Format: ADME, cell-free, MC-38.
Data set [10] can be described thus: Drug uptake in tumor of C57BL/6J mouse implanted with mouse MC38 cells assessed as drug concentration at 20 ug,IT administrated on right flank on day 0 measured upto 1 hr by LC-MS analysis. The format is ADME, tissue-based, Neoplasm, MC-38. To be noted: in vivo, other, dose 20 µg.
A short description of data set [11]: Drug uptake in tumor of C57BL/6J mouse implanted with mouse MC38 cells assessed as drug concentration at 20 ug,IT administrated on left flank on day 0 measured upto 1 hr by LC-MS analysis. Format: ADME, tissue-based, Neoplasm, MC-38. To be noted: in vivo, other, dose 20 µg.
Data set [12] concerns Mus musculus. Put plainly: Antitumor immunity in mouse MC38 cells implanted in C57BL/6J mouse assessed as increase in IL-6 level in injected tumor at 100 to 500 ug,IT administrated in right flank on day 0 measured after 4 hrs by mesoscale assay. The format is functional, organism-based. The following applies: MC-38, dose 100-500 µg.
The test system of data set [13] is Mus musculus. Put plainly: Antitumor immunity in mouse MC38 cells implanted in C57BL/6J mouse assessed as increase in IFN-beta level in injected tumor at 100 to 500 ug,IT administrated in right flank on day 0 measured after 4 hrs by ELISA. Format: functional, organism-based. To be noted: MC-38, dose 100-500 µg.
For data set [14], the system named is Mus musculus. Briefly: Antitumor immunity in mouse MC38 cells implanted in C57BL/6J mouse assessed as increase in TNF-alpha level in injected tumor at 100 to 500 ug,IT administrated in right flank on day 0 measured after 4 hrs by mesoscale assay. The following applies: MC-38, dose 100-500 µg. Format: functional, organism-based.

Data on 8 compounds can be found in ChEMBL document CHEMBL5154814, “Discovery of MK-1454: A Potent Cyclic Dinucleotide Stimulator of Interferon Genes Agonist for the Treatment of Cancer” (J Med Chem, 2022).

The source made the active and inactive calls. The calls are words filed in the database; no cut-off is given here. Where only a bound is given, the exact number is not on record here.

Chain of Stimulator of interferon genes protein (Q3TBT3 whole entry, looked up, change not shown): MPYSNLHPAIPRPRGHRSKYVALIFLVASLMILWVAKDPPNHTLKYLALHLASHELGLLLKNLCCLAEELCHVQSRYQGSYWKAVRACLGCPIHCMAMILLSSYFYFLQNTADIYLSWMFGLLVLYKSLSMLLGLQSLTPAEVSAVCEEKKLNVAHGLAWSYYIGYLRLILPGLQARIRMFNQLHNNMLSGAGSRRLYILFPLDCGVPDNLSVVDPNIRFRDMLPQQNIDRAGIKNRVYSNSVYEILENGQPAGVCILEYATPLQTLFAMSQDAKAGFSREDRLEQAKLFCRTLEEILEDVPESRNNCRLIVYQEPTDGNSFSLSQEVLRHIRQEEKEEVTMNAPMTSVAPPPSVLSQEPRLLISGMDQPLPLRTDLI

Take `Nc1nc(=O)c2ncn([C@@H]3O[C@@H]4CO[P@@](=O)(S)O[C@H]5[C@H](F)[C@H](n6cnc7c(N)ncnc76)O[C@@H]5CO[P@@](=O)(S)O[C@@H]3[C@@H]4F)c2[nH]1`: the result in the data set with MC-38 [1], in the data set with MC-38 [2], in the data set on Mus musculus [3], in the data set with Mus musculus [4], in the data set with Mus musculus [5] and with MC-38 [6] was Active. The result with B16-F10 was Active.

For `Nc1nc2c(ncn2[C@@H]2O[C@@H]3COP(=O)(O)O[C@H]4[C@H]5OC[C@]4(COP(=O)(O)O[C@@H]2C3)O[C@H]5n2cnc3c(N)ncnc32)c(=O)[nH]1`, in data set [7], the 50% effective concentration (EC50) is over 100 µM.

On to `Nc1nc2c(ncn2[C@@H]2O[C@@H]3CO[P@@](=O)(S)O[C@H]4[C@@H](F)[C@H](n5cnc6c(N)ncnc65)O[C@@H]4CO[P@@](=O)(S)O[C@@H]2[C@@H]3O)c(=O)[nH]1`, for which the concentration giving a half-maximal response (EC50) in data set [7] was 1.55 µM.

In data set [7], `Nc1nc2c(ncn2[C@@H]2O[C@@H]3CO[P@@](=O)(S)O[C@H]4[C@@H](O)[C@H](n5cnc6c(N)ncnc65)O[C@@H]4CO[P@@](=O)(S)O[C@@H]2C3)c(=O)[nH]1` returned an EC50 of 6.23 µM.

In the case of `Nc1nc2c(ncn2[C@@H]2O[C@@H]3CO[P@@](=O)(S)O[C@H]4[C@H]5OC[C@]4(CO[P@@](=O)(S)O[C@@H]2[C@@H]3O)O[C@H]5n2cnc3c(N)ncnc32)c(=O)[nH]1`, in data set [7], it took 5.38 µM to reach a half-maximal effect (EC50).

In the case of `N.N.Nc1nc2c(ncn2[C@@H]2O[C@@H]3CO[P@@](=O)(S)O[C@H]4[C@H](F)[C@H](n5cnc6c(N)ncnc65)O[C@@H]4CO[P@@](=O)(S)O[C@@H]2[C@@H]3F)c(=O)[nH]1`, the Drug uptake result in data set [8], in data set [9], in data set [10] and in data set [11] was “Active” throughout.

Take `Nc1nc2c(ncn2[C@@H]2O[C@@H]3CO[P@@](=O)(S)O[C@H]4C[C@H](n5cnc6c(N)ncnc65)O[C@@H]4CO[P@@](=O)(S)O[C@@H]2[C@@H]3F)c(=O)[nH]1`: in data set [7], it took 3.21 µM to reach a half-maximal effect (EC50).

With `Nc1nc2c(ncn2[C@@H]2O[C@@H]3COP(=O)(O)O[C@H]4[C@@H](O)[C@H](n5cnc6c(N)ncnc65)O[C@@H]4COP(=O)(O)O[C@@H]2[C@@H]3O)c(=O)[nH]1`, the outcome in the data set with Mus musculus [12], in the data set with Mus musculus [13] and with Mus musculus [14] was Active.
